In patent US20070191345A1, “3-((Hetero)arylsulfonyl)-8-'(aminoalkyl)oxyquinolines as 5-ht6 receptor antagonists for the treatment of cns disorders” (GLAXO GROUP LIMITED, priority 2004, published 2007):
Where a name gives a salt, the structure may show the parent alone. Read-outs that look alike come from different tables or passages of the source.

Target: T1, human cloned 5-HT6 receptors (Homo sapiens, UniProt P50406)
T1 construct: expressed in transfected cells; host or cells: HeLa cells expressing the cloned 5-HT6 receptor (washed membranes)
Test: Cyclase assay (cAMP production in washed membranes of HeLa 5HT6 cells, 5-HT stimulated)
Assay type: biochemical
Description: Compounds of the invention may be tested for in vitro biological activity in accordance with the following cyclase assay:
0.5 μl of test compound in 100% dimethylsulfoxide (DMSO) was added to a white, solid 384 well assay plate (for dose response measurements the top of the concentration range is 7.5 μM final). 10 μl of washed membranes of HeLa 5HT6 cells (for preparation see WO 98/27081) in basic buffer (50 mM HEPES pH 7.4 (KOH), 10 mM MgCl2, 100 mM NaCl, 1 μl/ml 3-isobutyl-1-methylxanthine (IBMX) (Sigma-Aldrich)) was added to all wells followed by 10 μl 2×ATP buffer (100 μl/ml ATP and 1 μl/ml 3-Isobutyl-1-methylxanthine (IBMX) (Sigma-Aldrich)) with 5-HT (at a concentration equivalent to a dose response of 4×EC50). The resultant mixture was then incubated at room temperature for 30-45 minutes to allow cAMP production.
cAMP production was then measured using the DiscoveRx™ HitHunter™ chemiluminescence cAMP assay kit (DiscoveRx Corporation, 42501 Albrae Street, Fremont, Calif. 94538; Product Code: 90-0004L) or any other suitable cAMP measurement assay.
IC50 values were estimated from arbitrary designated unit (ADU) measurements from a Perkin Elmer Viewlux instrument using a four parameter logistic curve fit within EXCEL (Bowen, W. P. and Jerman, J. C. (1995), Nonlinear regression using spreadsheets. Trends in Pharmacol. Sci., 16, 413-417). Functional Ki values were calculated using the method of Cheng, Y. C. and Prussof, W. H. (Biochemical Pharmacol (1973) 22 3099-3108). pIC50 and fpKi are the negative log10 of the molar IC50 and functional Ki respectively.

[1] = membranes of HeLa 5HT6 cells, 5-HT at 4×EC50, functional Ki calculated by Cheng-Prusoff from IC50, read-out: fpKi (functional pKi, antagonist potency for the 5-HT6 receptor) (converted)

T1 sequence (P50406 whole entry): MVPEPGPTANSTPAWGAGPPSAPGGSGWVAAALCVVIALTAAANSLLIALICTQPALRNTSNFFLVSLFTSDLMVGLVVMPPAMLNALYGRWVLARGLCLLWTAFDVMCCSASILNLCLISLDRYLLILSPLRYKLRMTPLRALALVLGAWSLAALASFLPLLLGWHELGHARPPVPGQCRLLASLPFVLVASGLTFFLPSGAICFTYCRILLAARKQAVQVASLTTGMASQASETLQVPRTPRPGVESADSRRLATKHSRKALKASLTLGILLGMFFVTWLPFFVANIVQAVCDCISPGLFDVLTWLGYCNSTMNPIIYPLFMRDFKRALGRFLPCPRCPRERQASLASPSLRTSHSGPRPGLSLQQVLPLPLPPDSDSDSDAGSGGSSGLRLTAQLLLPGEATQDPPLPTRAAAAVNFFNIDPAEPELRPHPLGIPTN

Compound | Ki [1] | Ki
CC(Oc1cccc2cc(S(=O)(=O)c3ccccc3)cnc12)C(C)N(C)C (stereo not drawn) [Example E6, Dimethyl(1-methyl-2-{[(3-(phenylsulfonyl)-8-quinolinyl]oxy}propyl)amine, hydrochloride] | < 10 nM | –
O=S(=O)(c1ccccc1)c1cnc2c(OC[C@H]3CCCN3)cccc2c1 [Example E7, 3-(Phenylsulfonyl)-8-{[(2R)-2-pyrrolidinylmethyl]oxy}quinoline, hydrochloride] | < 10 nM | –
O=S(=O)(c1ccccc1)c1cnc2c(OCC3COCCN3)cccc2c1 (stereo not drawn) [Example E24, 8-[(3-Morpholinylmethyl)oxy]-3-(phenylsulfonyl) quinoline, hydrochloride] | < 10 nM | –
CN(C)CCOc1cccc2cc(S(=O)(=O)c3ccccc3)cnc12 [Example E1b, [2-(3-Phenylsulfonylquinoline-8-yloxy)ethyl]dimethylamine, hydrochloride] | < 10 nM | –
CN1CCCC(Oc2cccc3cc(S(=O)(=O)c4ccccc4)cnc23)C1 (stereo not drawn) [Example E23, 8-[(1-Methyl-3-piperidinyl)oxy]-3-(phenylsulfonyl) quinoline, hydrochloride] | < 10 nM | –
O=S(=O)(c1ccccc1)c1cnc2c(OC[C@@H]3CCCN3)cccc2c1 [Example E3, 3-(Phenylsulfonyl)-8-{[(2S)-2-pyrrolidinylmethyl]oxy}quinoline, hydrochloride] | < 10 nM | –
O=S(=O)(c1ccccc1)c1cnc2c(OC3CCCNC3)cccc2c1 (stereo not drawn) [Example E15, 3-(Phenylsulfonyl)-8-(3-piperidinyloxy) quinoline, hydrochloride] | < 10 nM | –
O=S(=O)(c1ccccc1)c1cnc2c(O[C@@H]3CCNC3)cccc2c1 [Example E5, 3-(Phenylsulfonyl)-8-[(3R)-3-pyrrolidinyloxy]quinoline, hydrochloride] | < 10 nM | –
CN1CCC[C@H]1COc1cccc2cc(S(=O)(=O)c3ccccc3)cnc12 [Example E2b, 8-({[(2S)-1-Methyl-2-pyrrolidinyl]methyl}oxy)-3-(phenylsulfonyl) quinoline, hydrochloride] | < 10 nM | –
CN1CC[C@@H](Oc2cccc3cc(S(=O)(=O)c4ccccc4)cnc23)C1 [Example E17, 8-[[(3R)-1-Methyl-3-pyrrolidinyl]oxy}-3-(phenylsulfonyl) quinoline, hydrochloride] | < 10 nM | –
O=S(=O)(c1ccccc1)c1cnc2c(OCCN3CCCC3)cccc2c1 [Example E4, 3-(Phenylsulfonyl)-8-{[2-(1-pyrrolidinyl)ethyl]oxy}quinoline, hydrochloride] | < 10 nM | –
O=S(=O)(c1ccccc1)c1cnc2c(OCC3CC4CCN3CC4)cccc2c1 (stereo not drawn) [Example E22, 8-[(1-Azabicyclo[2.2.2]oct-2-ylmethyl)oxy]-3-(phenylsulfonyl) quinoline, hydrochloride] | – | < 10 nM
